{
  "source": "patent US20150250210A1",
  "about": "“FLAVOUR ADDITIVES” (MARS INCORPORATED, priority 2012, published 2015)",
  "data": [
    {"test_system": "T1R1/T1R3 umami receptor", "assay": "in silico modelling and in vitro screening for binding and activation of the umami receptor", "type": "cell-based, cat", "conditions": "feline umami receptor", "procedure": "(§1) In vitro screening was carried out in order to establish which amino acids bind and activate the umami receptor.\n(§2) In vitro screening was carried out in order to establish which nucleotides bind and activate the umami receptor.", "values": [
      {"smiles": "N[C@@H](CCC(=O)O)C(=O)O", "note": "[glutamate]", "binding to the feline umami receptor": "does not bind"}
    ]},
    {"test_system": "T1R1/T1R3 umami receptor", "assay": "in silico modelling and in vitro screening for binding and activation of the umami receptor", "type": "cell-based, cat", "conditions": "non-human umami receptor; in silico modelling and in vitro assays", "procedure": "as §1, §2", "values": [
      {"smiles": "N[C@@H](Cc1c[nH]c2ccccc12)C(=O)O", "note": "[tryptophan]", "ability to bind to and activate the umami receptor": "able to bind to and activate the umami receptor to different extents"},
      {"smiles": "NCC(=O)O", "note": "[glycine]", "ability to bind to and activate the umami receptor": "able to bind to and activate the umami receptor to different extents"},
      {"smiles": "CC(C)C[C@H](N)C(=O)O", "note": "[leucine]", "ability to bind to and activate the umami receptor": "able to bind to and activate the umami receptor to different extents"},
      {"smiles": "N[C@@H](Cc1c[nH]cn1)C(=O)O", "note": "[histidine]", "ability to bind to and activate the umami receptor": "able to bind to and activate the umami receptor to different extents"},
      {"smiles": "NC(=O)C[C@H](N)C(=O)O", "note": "[asparagine]", "ability to bind to and activate the umami receptor": "able to bind to and activate the umami receptor to different extents"},
      {"smiles": "N[C@@H](CS)C(=O)O", "note": "[cysteine]", "ability to bind to and activate the umami receptor": "able to bind to and activate the umami receptor to different extents"},
      {"smiles": "N[C@@H](CO)C(=O)O", "note": "[serine]", "ability to bind to and activate the umami receptor": "able to bind to and activate the umami receptor to different extents"},
      {"smiles": "N[C@@H](Cc1ccc(O)cc1)C(=O)O", "note": "[tyrosine]", "ability to bind to and activate the umami receptor": "able to bind to and activate the umami receptor to different extents"},
      {"smiles": "N[C@@H](Cc1ccccc1)C(=O)O", "note": "[phenylalanine]", "ability to bind to and activate the umami receptor": "able to bind to and activate the umami receptor to different extents"},
      {"smiles": "C[C@H](N)C(=O)O", "note": "[alanine]", "ability to bind to and activate the umami receptor": "able to bind to and activate the umami receptor to different extents"},
      {"smiles": "CSCC[C@H](N)C(=O)O", "note": "[methionine]", "ability to bind to and activate the umami receptor": "able to bind to and activate the umami receptor to different extents"}
    ]}
  ]
}
